Where two headings read alike, the source gives them in different places.

One assay deals with T1, GIP-R (Homo sapiens, UniProt P48546).
T1 sequence (P48546 22-466): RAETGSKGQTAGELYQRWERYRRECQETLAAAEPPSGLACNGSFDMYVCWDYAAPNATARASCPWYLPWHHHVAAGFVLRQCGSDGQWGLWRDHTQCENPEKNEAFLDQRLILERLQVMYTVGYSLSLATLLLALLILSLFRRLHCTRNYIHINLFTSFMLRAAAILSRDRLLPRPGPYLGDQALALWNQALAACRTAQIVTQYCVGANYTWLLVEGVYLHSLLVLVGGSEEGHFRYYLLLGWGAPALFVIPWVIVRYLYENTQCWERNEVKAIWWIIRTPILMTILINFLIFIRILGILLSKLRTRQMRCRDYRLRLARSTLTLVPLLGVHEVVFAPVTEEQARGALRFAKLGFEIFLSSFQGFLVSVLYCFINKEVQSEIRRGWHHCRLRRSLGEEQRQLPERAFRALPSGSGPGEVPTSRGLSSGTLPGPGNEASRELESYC
The assay can be described thus: HitHunter cAMP assay (GIP-R). Conditions: cAMP; for Emax: read-out: (Emax) GIP-R; for EC50: read-out: EC50 GIP-R/nM. The assay is classed as cell-based. The method, boiled down: (§1)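 cAMP accumulation read by luminescent HitHunter immunocompetition after 30 min room-temperature agonist stimulation. Agonists tested as 22-point twofold dilutions, in duplicate, on 10,000 cells/well in HBSS containing 625 μM IBMX, 10 mM HEPES and 0.2% BSA.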
(Changes in cAMP serve as a functional read-out for many G protein-coupled receptors.)

A further assay deals with GLP-1R (Homo sapiens, UniProt P43220). The assay can be described thus: HitHunter cAMP assay (GLP-1R). The assay is classed as cell-based. Conditions: cAMP; for Emax: read-out: (Emax) GLP-1R; for EC50: read-out: EC50 GLP-1R/nM. The method, boiled down: as §1
Chain of GLP-1R (P43220 24-463): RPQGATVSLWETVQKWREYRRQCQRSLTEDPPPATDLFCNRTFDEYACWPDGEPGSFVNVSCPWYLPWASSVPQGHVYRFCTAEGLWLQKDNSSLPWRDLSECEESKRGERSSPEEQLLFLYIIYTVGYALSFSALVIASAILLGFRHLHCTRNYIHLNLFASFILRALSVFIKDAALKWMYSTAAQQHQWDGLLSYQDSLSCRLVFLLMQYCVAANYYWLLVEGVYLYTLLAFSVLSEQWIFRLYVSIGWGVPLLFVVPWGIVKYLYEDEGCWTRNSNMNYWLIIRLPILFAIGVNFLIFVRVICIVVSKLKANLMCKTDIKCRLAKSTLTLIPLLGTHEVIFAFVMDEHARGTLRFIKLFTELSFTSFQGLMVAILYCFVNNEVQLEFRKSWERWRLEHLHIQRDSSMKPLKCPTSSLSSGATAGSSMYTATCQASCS

For the molecule `CCCCCCCCCCCCCCCC(=O)N[C@@H](CCC(=O)NCCCC[C@H](NC(=O)[C@H](CO)NC(=O)[C@@H]1CCCN1C(=O)[C@@H]1CCCN1C(=O)[C@@H]1CCCN1C(=O)[C@H](C)NC(=O)CNC(=O)[C@H](CO)NC(=O)[C@H](CO)NC(=O)[C@@H]1CCCN1C(=O)CNC(=O)CNC(=O)[C@H](C)NC(=O)[C@H](CC(C)C)NC(=O)[C@H](CC(C)C)NC(=O)[C@H](Cc1c[nH]c2ccccc12)NC(=O)[C@H](CC(N)=O)NC(=O)[C@@H](NC(=O)[C@H](Cc1ccccc1)NC(=O)[C@H](CCC(=O)O)NC(=O)C(C)(C)NC(=O)[C@H](C)NC(=O)[C@H](C)NC(=O)[C@H](CCC(N)=O)NC(=O)[C@H](CCCCN)NC(=O)[C@H](CC(=O)O)NC(=O)[C@H](CC(C)C)NC(=O)[C@H](Cc1ccc(O)cc1)NC(=O)[C@@H](NC(=O)[C@H](CO)NC(=O)[C@H](Cc1ccc(O)cc1)NC(=O)[C@H](CC(=O)O)NC(=O)[C@H](CO)NC(=O)[C@@H](NC(=O)[C@H](Cc1ccccc1)NC(=O)[C@@H](NC(=O)CNC(=O)[C@H](CCCC(=O)O)NC(=O)CSCC(=O)NCCN1CCCCC1=O)[C@@H](C)O)[C@@H](C)O)[C@@H](C)CC)C(C)C)C(N)=O)C(=O)O` [Compound 219], on GIP-R (Table 3A), the maximal effect (Emax) (as a rule, the greatest response seen or fitted, relative to the assay's reference) came out at 75% and the EC50 is 1 to 10 nM. For the same molecule, on GLP-1R (Table 3A), the Emax was 89% and the EC50 is 10 to 100 nM.

On to `CCCCCCCCCCCCCCCC(=O)N[C@@H](CCC(=O)NCCCC[C@H](NC(=O)[C@H](CO)NC(=O)[C@@H]1CCCN1C(=O)[C@@H]1CCCN1C(=O)[C@@H]1CCCN1C(=O)[C@H](C)NC(=O)CNC(=O)[C@H](CO)NC(=O)[C@H](CO)NC(=O)[C@@H]1CCCN1C(=O)CNC(=O)CNC(=O)[C@H](C)NC(=O)[C@H](CC(C)C)NC(=O)[C@H](CC(C)C)NC(=O)[C@H](Cc1c[nH]c2ccccc12)NC(=O)[C@H](CC(N)=O)NC(=O)[C@@H](NC(=O)[C@H](Cc1ccccc1)NC(=O)[C@H](CCC(=O)O)NC(=O)C(C)(C)NC(=O)[C@H](C)NC(=O)[C@H](C)NC(=O)[C@H](CCC(N)=O)NC(=O)[C@H](CCCCN)NC(=O)[C@H](CC(=O)O)NC(=O)[C@H](CC(C)C)NC(=O)[C@H](Cc1ccc(O)cc1)NC(=O)[C@@H](NC(=O)[C@H](CO)NC(=O)[C@H](Cc1ccc(O)cc1)NC(=O)[C@H](CC(=O)O)NC(=O)[C@H](CO)NC(=O)[C@@H](NC(=O)[C@H](Cc1ccccc1)NC(=O)[C@@H](NC(=O)CNC(=O)[C@H](CCC(=O)O)NC(=O)CSCC(=O)NCCN1CC(=O)N(C)C1=O)[C@@H](C)O)[C@@H](C)O)[C@@H](C)CC)C(C)C)C(N)=O)C(=O)O` [Compound 46], for which the Emax at GIP-R (Table 3) was 46%; at GIP-R (Table 3A) it was 46%; at GLP-1R (Table 3) it was 100%; at GLP-1R (Table 3A) it was 100%. Moreover, the EC50 at GIP-R (Table 3), at GIP-R (Table 3A), at GLP-1R (Table 3) and on GLP-1R (Table 3A) was 1 to 10 nM in each case.

`CC[C@H](C)[C@H](NC(=O)[C@H](CO)NC(=O)[C@H](Cc1ccc(O)cc1)NC(=O)[C@H](CC(=O)O)NC(=O)[C@H](CO)NC(=O)[C@@H](NC(=O)[C@H](Cc1ccccc1)NC(=O)[C@@H](NC(=O)CNC(=O)[C@H](CCC(=O)O)NC(=O)CC(=O)NCCCN1C(=O)c2ccccc2C1=O)[C@@H](C)O)[C@@H](C)O)C(=O)N[C@@H](Cc1ccc(O)cc1)C(=O)N[C@@H](CC(C)C)C(=O)N[C@@H](CC(=O)O)C(=O)N[C@@H](CCCCN)C(=O)N[C@@H](CCC(N)=O)C(=O)N[C@@H](C)C(=O)N[C@@H](C)C(=O)NC(C)(C)C(=O)N[C@@H](CCC(=O)O)C(=O)N[C@@H](Cc1ccccc1)C(=O)N[C@H](C(=O)N[C@@H](CC(N)=O)C(=O)N[C@@H](Cc1c[nH]c2ccccc12)C(=O)N[C@@H](CC(C)C)C(=O)N[C@@H](CC(C)C)C(=O)N[C@@H](C)C(=O)NCC(=O)NCC(=O)N1CCC[C@H]1C(=O)N[C@@H](CO)C(=O)N[C@@H](CO)C(=O)NCC(=O)N[C@@H](C)C(=O)N1CCC[C@H]1C(=O)N1CCC[C@H]1C(=O)N1CCC[C@H]1C(=O)N[C@@H](CO)C(=O)N[C@@H](CCCCN)C(N)=O)C(C)C` [Compound 125]: the maximal effect (Emax) at GIP-R (Table 3) was 54 to 60%; at GIP-R (Table 3A) it was 54 to 60%; on GLP-1R (Table 3), 94 to 100%; at GLP-1R (Table 3A) it was 94 to 100%. For the same molecule, the EC50 at GIP-R (Table 3) lay in the range of 1 to 10 nM; on GIP-R (Table 3A) it was 1 to 10 nM; at GLP-1R (Table 3), 10 to 100 nM; at GLP-1R (Table 3A) it was 10 to 100 nM.

As for `CC[C@H](C)[C@H](NC(=O)[C@H](CO)NC(=O)[C@H](Cc1ccc(O)cc1)NC(=O)[C@H](CC(=O)O)NC(=O)[C@H](CO)NC(=O)[C@@H](NC(=O)[C@H](Cc1ccccc1)NC(=O)[C@@H](NC(=O)CNC(=O)[C@H](CCC(=O)O)NC(=O)CSCC(=O)NCCN1C(=O)CCC1=O)[C@@H](C)O)[C@@H](C)O)C(=O)N[C@@H](Cc1ccc(O)cc1)C(=O)N[C@@H](CC(C)C)C(=O)N[C@@H](CC(=O)O)C(=O)N[C@@H](CCCCN)C(=O)N[C@@H](CCC(N)=O)C(=O)N[C@@H](C)C(=O)N[C@@H](C)C(=O)NC(C)(C)C(=O)N[C@@H](CCC(=O)O)C(=O)N[C@@H](Cc1ccccc1)C(=O)N[C@H](C(=O)N[C@@H](CC(N)=O)C(=O)N[C@@H](Cc1c[nH]c2ccccc12)C(=O)N[C@@H](CC(C)C)C(=O)N[C@@H](CC(C)C)C(=O)N[C@@H](C)C(=O)NCC(=O)NCC(=O)N1CCC[C@H]1C(=O)N[C@@H](CO)C(=O)N[C@@H](CO)C(=O)NCC(=O)N[C@@H](C)C(=O)N1CCC[C@H]1C(=O)N1CCC[C@H]1C(=O)N1CCC[C@H]1C(=O)N[C@@H](CO)C(=O)N[C@@H](CCCCN)C(N)=O)C(C)C` [Compound 117], the maximum response (Emax) at GIP-R (Table 3) worked out at 70%; on GIP-R (Table 3A), 70%; on GLP-1R (Table 3), 92%; on GLP-1R (Table 3A), 92%. Also, the EC50 lay in the range of 10 to 100 nM at GIP-R (Table 3), 10 to 100 nM at GIP-R (Table 3A), 10 to 100 nM at GLP-1R (Table 3) and 1 to 10 nM at GLP-1R (Table 3A).

Turning to `CCCCCCCCCCCCCCCC(=O)N[C@@H](CCC(=O)NCCCC[C@H](NC(=O)[C@H](CO)NC(=O)[C@@H]1CCCN1C(=O)[C@@H]1CCCN1C(=O)[C@@H]1CCCN1C(=O)[C@H](C)NC(=O)CNC(=O)[C@H](CO)NC(=O)[C@H](CO)NC(=O)[C@@H]1CCCN1C(=O)CNC(=O)CNC(=O)[C@H](C)NC(=O)[C@H](CC(C)C)NC(=O)[C@H](CC(C)C)NC(=O)[C@H](Cc1c[nH]c2ccccc12)NC(=O)[C@H](CC(N)=O)NC(=O)[C@@H](NC(=O)[C@H](Cc1ccccc1)NC(=O)[C@H](CCC(=O)O)NC(=O)C(C)(C)NC(=O)[C@H](C)NC(=O)[C@H](C)NC(=O)[C@H](CCC(N)=O)NC(=O)[C@H](CCCCN)NC(=O)[C@H](CC(=O)O)NC(=O)[C@H](CC(C)C)NC(=O)[C@H](Cc1ccc(O)cc1)NC(=O)[C@@H](NC(=O)[C@H](CO)NC(=O)[C@H](Cc1ccc(O)cc1)NC(=O)[C@H](CC(=O)O)NC(=O)[C@H](CO)NC(=O)[C@@H](NC(=O)[C@H](Cc1ccccc1)NC(=O)[C@@H](NC(=O)CNC(=O)[C@H](CCC(=O)O)NC(=O)CSCC(=O)NCCN1C(=O)CNC1=O)[C@@H](C)O)[C@@H](C)O)[C@@H](C)CC)C(C)C)C(N)=O)C(=O)O` [Compound 84], the maximum response (Emax) at GIP-R (Table 3) is 53%; on GIP-R (Table 3A), 53%; at GLP-1R (Table 3) it was 107%; at GLP-1R (Table 3A) it was 107%. Moreover, the EC50 at GIP-R (Table 3) lay within 1 to 10 nM; at GIP-R (Table 3A), 1 to 10 nM; at GLP-1R (Table 3), 0.1 to 1 nM; on GLP-1R (Table 3A), 0.1 to 1 nM.
